{"source": "patent US20070202158A1", "about": "“Methods Of Administering Water-Soluble Prodrugs Of Propofol For Extended Sedation” (MGI GP, Inc., priority 2003, published 2007)", "experiment": "Plasma concentration of propofol derived from the test prodrug in rats (Table I)", "assay_type": "in vivo", "details": "rat; for F_Cmax / F_AUCt: relative to 5 mg/kg IV; for AUCt / Cmax: propofol in plasma; for AUCt: 0-360 min", "protocol": "Upon administration, the test prodrug is converted in the body into propofol, its pharmacologically active metabolite. The pharmacokinetic profile, i.e. the blood plasma concentration of propofol derived from the test prodrug, was assessed in a separate experiment. Male Sprague-Dawley Rats (225-250 g) were obtained with indwelling jugular or intraduodenal catheters (Hilltop Labs, PA). On the day of testing, control blood samples were taken from the jugular vein prior to dosing. O-phosphonooxymethyl propofol disodium salt was then dosed in different concentrations in groups of 2-3 rats. The test prodrug was administered either by the oral, intravenous or intraduodenal routes. Blood samples (0.5 ml) were taken at 5, 15, 30, 45, 60, 120, 240 and 360 min after administration of the test prodrug. Blood samples were centrifuged to obtain plasma and stored frozen until analysis. The outcome of this experiment is depicted in the following table I:\n“Cmax” is the mean maximum plasma concentration; “F Cmax” is the calculated mean bioavailability of the Cmax for propofol generated from the tested prodrug (as administered via various routes and at various doses), relative to an intravenous dose of 5 mg/kg at Cmax; “AUCt” is the mean area under the curve from time 0 to the last measured time point (360 min); “F AUCt” is the calculated mean bioavailability for AUCt. “Bioavailability” is the quotient, expressed as per cent, of the Cmax or AUCt for intragastric (po) or intraduodenal (GB) administration, and the Cmax or AUCt for a 5 mg/kg intravenous dose, adjusted for dose. […] This transformation provides a reasonable measure to compare the systemic exposure to propofol generated from the test compound (after administration of various doses by various routes) to systemic propofol exposure after I.V. administration of the prodrug."}
{"smiles": "CC(C)c1cccc(C(C)C)c1OCOP(=O)([O-])[O-].[Na+].[Na+]", "note": "[O-phosphonooxymethyl propofol disodium salt]", "values": [{"measurement": "F_Cmax", "setting": "Gb (intraduodenal) 1 mg/kg", "value": 14.4, "unit": "%"}, {"measurement": "F_AUCt", "setting": "Gb (intraduodenal) 3 mg/kg", "value": 9.34, "unit": "%"}, {"measurement": "F_Cmax", "setting": "Gb (intraduodenal) 3 mg/kg", "value": 27.3, "unit": "%"}, {"measurement": "F_AUCt", "setting": "Gb (intraduodenal) 10 mg/kg", "value": 27.4, "unit": "%"}, {"measurement": "F_Cmax", "setting": "Gb (intraduodenal) 10 mg/kg", "value": 35.0, "unit": "%"}, {"measurement": "F_AUCt", "setting": "Gb (intraduodenal) 30 mg/kg", "value": 55, "unit": "%"}, {"measurement": "F_Cmax", "setting": "Gb (intraduodenal) 30 mg/kg", "value": 74.0, "unit": "%"}, {"measurement": "F_AUCt", "setting": "Gb (intraduodenal) 100 mg/kg", "value": 161, "unit": "%"}, {"measurement": "F_Cmax", "setting": "Gb (intraduodenal) 100 mg/kg", "value": 102, "unit": "%"}, {"measurement": "F_AUCt", "setting": "I.V. 5 mg/kg", "value": 100, "unit": "%"}, {"measurement": "F_Cmax", "setting": "I.V. 5 mg/kg", "value": 100, "unit": "%"}, {"measurement": "F_AUCt", "setting": "I.V. 50 mg/kg", "value": 117.9, "unit": "%"}, {"measurement": "F_Cmax", "setting": "I.V. 50 mg/kg", "value": 86.7, "unit": "%"}, {"measurement": "bioavailability of propofol liberated from the prodrug (in words)", "setting": "gastric bypass", "value": "markedly enhanced"}, {"measurement": "F_AUCt", "setting": "p.o. 20 mg/kg", "value": 13.3, "unit": "%"}, {"measurement": "F_Cmax", "setting": "p.o. 20 mg/kg", "value": 3.72, "unit": "%"}, {"measurement": "F_AUCt", "setting": "p.o. 50 mg/kg", "value": 22.2, "unit": "%"}, {"measurement": "F_Cmax", "setting": "p.o. 50 mg/kg", "value": 4.65, "unit": "%"}, {"measurement": "F_Cmax", "setting": "p.o. 100 mg/kg", "value": 9.20, "unit": "%"}, {"measurement": "F_AUCt", "setting": "p.o. 100 mg/kg, disodium salt", "value": 53.2, "unit": "%"}, {"measurement": "F_AUCt", "setting": "p.o. 100 mg/kg, listed as test compound, disodium salt", "value": "above 50%"}, {"measurement": "Cmax bioavailability of propofol (F Cmax, in words)", "setting": "p.o. 20, 50 and 100 mg/kg", "value": "limited at all tested dose levels"}, {"measurement": "AUCt", "setting": "Gb (intraduodenal) 3 mg/kg", "value": 0.389, "unit": "µg·min/mL"}, {"measurement": "AUCt", "setting": "Gb (intraduodenal) 10 mg/kg", "value": 3.81, "unit": "µg·min/mL"}, {"measurement": "AUCt", "setting": "Gb (intraduodenal) 30 mg/kg", "value": 22.9, "unit": "µg·min/mL"}, {"measurement": "AUCt", "setting": "Gb (intraduodenal) 100 mg/kg", "value": 223, "unit": "µg·min/mL"}, {"measurement": "AUCt", "setting": "I.V. 5 mg/kg", "value": 6.94, "unit": "µg·min/mL"}, {"measurement": "AUCt", "setting": "I.V. 50 mg/kg", "value": 81.8, "unit": "µg·min/mL"}, {"measurement": "AUCt", "setting": "p.o. 20 mg/kg", "value": 3.70, "unit": "µg·min/mL"}, {"measurement": "AUCt", "setting": "p.o. 50 mg/kg", "value": 15.4, "unit": "µg·min/mL"}, {"measurement": "AUCt", "setting": "p.o. 100 mg/kg", "value": 73.8, "unit": "µg·min/mL"}, {"measurement": "Cmax", "setting": "Gb (gastric bypass, intraduodenal) 1 mg/kg", "value": 8.26, "unit": "ng/mL"}, {"measurement": "Cmax", "setting": "Gb (intraduodenal) 3 mg/kg", "value": 46.8, "unit": "ng/mL"}, {"measurement": "Cmax", "setting": "Gb (intraduodenal) 10 mg/kg", "value": 200, "unit": "ng/mL"}, {"measurement": "Cmax", "setting": "Gb (intraduodenal) 30 mg/kg", "value": 1270, "unit": "ng/mL"}, {"measurement": "Cmax", "setting": "Gb (intraduodenal) 100 mg/kg", "value": 5840, "unit": "ng/mL"}, {"measurement": "Cmax", "setting": "I.V. 5 mg/kg", "value": 286, "unit": "ng/mL"}, {"measurement": "Cmax", "setting": "I.V. 50 mg/kg", "value": 2480, "unit": "ng/mL"}, {"measurement": "Cmax", "setting": "p.o. 20 mg/kg", "value": 42.6, "unit": "ng/mL"}, {"measurement": "Cmax", "setting": "p.o. 50 mg/kg", "value": 133, "unit": "ng/mL"}, {"measurement": "Cmax", "setting": "p.o. 100 mg/kg", "value": 526, "unit": "ng/mL"}]}
